Reference: patent US10106519B2, “3-phenyl-7-hydroxy-isocoumarins as macrophage migration inhibitory factor (MIF) inhibitors” (The Provost, Fellows, Foundation Scholars, & the Other …, priority 2014, dated 2018)
“Also recorded” adds a separate entry of the source.

Test system: Lewis Lung carcinoma cells
Experiment: Subcutaneous LLC1 tumour model with in vivo tautomerase inhibitor treatment
Parameters: species or system C57BL/6 mice
Procedure: Log phase cultures of LLC-1 cells were harvested by trypsinisation and washed three times with sterile phosphate buffered saline (PBS) and resuspended at a cell density of 5×10^5/ml in PBS. Animals were shaved with an electric shaver 24 hours before subcutaneous injection. 5×10^5 Lewis Lung cells were injected subcutaneously into the left flank of C57BL/6 mice of 6-8 weeks. Animals were monitored for the duration of the experiment and tumour measurements were recorded twice weekly with a digital callipers. Tumour volume (mm^3) was calculated as 0.5×L×W^2, where length is representative of the larger tumour diameter and the width represents the smaller tumour diameter. Animals are sacrificed when tumours reach a diameter of 15 mm or if tumours become ulcerated. Tumours are then removed along with the lungs, spleen and liver.
30 minutes prior to LLC-1 inoculation, inhibitors (TI 19/ISO-1) were administered at a concentration of 35 mg/kg in a volume of 100 μl 5% DMSO in sterile PBS. Control groups were given injections of vehicle 5% DMSO in sterile PBS or sterile PBS alone. Animals were treated twice weekly for four weeks.
In order to assess the antitumour activity of the novel tautomerase inhibitors in vivo, a subcutaneous LLC-1 cell model was set up. The subcutaneous model was chosen so that tumours could be easily visualised and measured during the course of the experiment and to allow assessment of the growth of the tumour in real time. Lewis Lung carcinoma cells (5×10^5) were injected sub-cutaneously into the left flank of C57BL/6 mice. Caliper measurements were taken twice weekly and tumour volume (mm^3) was calculated as 0.5×L×W^2. […] The cut off point for this model was when the tumour measured 15 mm in diameter. This model gave us an indication of normal tumour growth in this subcutaneous model. It can be seen from this model that from day 22 to day 28 the size of the tumour grows considerably.
Once it was determined that the enzymatic activity played a role in the growth of tumours, the subcutaneous LLC model was then used to assess the efficiency of the small weight molecular inhibitors. C57/B16 mice were injected intraperitoneally with 35 mg/kg of each of the inhibitors 30 minutes prior to subcutaneous tumour inoculation and again twice weekly for 4 weeks. Animals were monitored daily and tumour measurements taken until the tumour measured 15 mm in diameter.

SMILES: Cc1ccccc1-c1cc2ccccc2c(=O)o1 [TI 19]
- tumour volume (35 mg/kg intraperitoneally 30 min prior to inoculation and twice weekly (FIG. 8)): 116.1±30.41 mm^3
- reduction in tumour size, in words (35 mg/kg intraperitoneally, versus untreated or vehicle (DMSO) group (FIG. 8)): significant reduction in tumour size; also recorded: significant reduction in tumour volume
- effectiveness in reducing tumour size relative to ISO-1 (at 28 days): approximately twice as effective
